One block for each molecule: values may come before it.
System: 624824-186-R-J3-PDC multicell spheroids, viability
Assay: Anticancer human tumor 624824-186-R-J3-PDC patient-derived colon adenocarcinoma cell line growth inhibition [PI3K]
Conditions: for IC50: curve of first compound; for viability, T/C: stronger effect = lower value
How it was run: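 Tumor cells were combined with HUVEC and MSCs into spheroids, then dosed with PI3K-inhibitor combinations over half-log ranges capped near clinical Cmax or 10 microM.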

[1] = second compound 0.0316 µM, first compound 0.0316 µM
[2] = second compound 0.0316 µM, first compound 0.1 µM
[3] = second compound 0.0316 µM, first compound 0.316 µM
[4] = second compound 0.0316 µM, first compound 1 µM
[5] = second compound 0.0316 µM, first compound 3.16 µM
[6] = second compound 0.0316 µM, first compound 10 µM
[7] = second compound 0.1 µM, first compound 0.0316 µM
[8] = second compound 0.1 µM, first compound 0.1 µM
[9] = second compound 0.1 µM, first compound 0.316 µM
[10] = second compound 0.1 µM, first compound 1 µM
[11] = second compound 0.1 µM, first compound 3.16 µM
[12] = second compound 0.1 µM, first compound 10 µM
[13] = second compound 0.316 µM, first compound 0.0316 µM
[14] = second compound 0.316 µM, first compound 0.1 µM
[15] = second compound 0.316 µM, first compound 0.316 µM
[16] = second compound 0.316 µM, first compound 1 µM
[17] = second compound 0.316 µM, first compound 3.16 µM
[18] = second compound 0.316 µM, first compound 10 µM
[19] = second compound 1 µM, first compound 0.0316 µM
[20] = second compound 1 µM, first compound 0.1 µM
[21] = second compound 1 µM, first compound 0.316 µM
[22] = second compound 1 µM, first compound 1 µM
[23] = second compound 1 µM, first compound 3.16 µM
[24] = second compound 1 µM, first compound 10 µM
[25] = second compound 3.16 µM, first compound 0.0316 µM
[26] = second compound 3.16 µM, first compound 0.1 µM
[27] = second compound 3.16 µM, first compound 0.316 µM
[28] = second compound 3.16 µM, first compound 1 µM
[29] = second compound 3.16 µM, first compound 3.16 µM
[30] = second compound 3.16 µM, first compound 10 µM
[31] = second compound 10 µM, first compound 0.0316 µM
[32] = second compound 10 µM, first compound 0.1 µM
[33] = second compound 10 µM, first compound 0.316 µM
[34] = second compound 10 µM, first compound 1 µM
[35] = second compound 10 µM, first compound 3.16 µM
[36] = second compound 10 µM, first compound 10 µM
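Note: spheroids exposed to agents for seven days before luminescence read.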
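Throughout, for viability, T/C: luminescent signal used as a stand-in for spheroid viability; percent viability relative to DMSO vehicle control wells taken as 100%.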

IC50 (second compound 0.0316 µM): > 10 µM | IC50 (second compound 0.1 µM): > 10 µM | IC50 (second compound 0.316 µM): > 10 µM | IC50 (second compound 1 µM): > 10 µM | IC50 (second compound 3.16 µM): > 10 µM | IC50 (second compound 10 µM): > 10 µM
SMILES: C#Cc1c(F)ccc2cc(O)cc(-c3ncc4c(N5CC6CCC(C5)N6)nc(OCC56CCCN5CC(F)C6)nc4c3F)c12 (centres undefined) + CC(Nc1ncnc2nc[nH]c12)c1cc2cccc(Cl)c2c(=O)n1-c1ccccc1
viability, T/C [1]: 115% | viability, T/C [2]: 93.2% | viability, T/C [3]: 104% | viability, T/C [4]: 101% | viability, T/C [5]: 97% | viability, T/C [6]: 117% | viability, T/C [7]: 106% | viability, T/C [8]: 99.2% | viability, T/C [9]: 117% | viability, T/C [10]: 113% | viability, T/C [11]: 105% | viability, T/C [12]: 115% | viability, T/C [13]: 88.4% | viability, T/C [14]: 103% | viability, T/C [15]: 109% | viability, T/C [16]: 102% | viability, T/C [17]: 114% | viability, T/C [18]: 115% | viability, T/C [19]: 102% | viability, T/C [20]: 110% | viability, T/C [21]: 108% | viability, T/C [22]: 103% | viability, T/C [23]: 111% | viability, T/C [24]: 112% | viability, T/C [25]: 96% | viability, T/C [26]: 105% | viability, T/C [27]: 105% | viability, T/C [28]: 95.3% | viability, T/C [29]: 100% | viability, T/C [30]: 110% | viability, T/C [31]: 96.3% | viability, T/C [32]: 97% | viability, T/C [33]: 94.5% | viability, T/C [34]: 92.8% | viability, T/C [35]: 98.3% | viability, T/C [36]: 85.7%

IC50 (second compound 0.0316 µM): > 10 µM | IC50 (second compound 0.1 µM): > 10 µM | IC50 (second compound 0.316 µM): > 10 µM | IC50 (second compound 1 µM): > 10 µM | IC50 (second compound 3.16 µM): > 10 µM | IC50 (second compound 10 µM): > 10 µM
SMILES: C=CC(=O)N1CCN(c2nc(=O)n(-c3c(C)ccnc3C(C)C)c3nc(-c4c(O)cccc4F)c(F)cc23)C(C)C1 (centres undefined) + CC(Nc1ncnc2nc[nH]c12)c1cc2cccc(Cl)c2c(=O)n1-c1ccccc1
viability, T/C [1]: 125% | viability, T/C [2]: 96.1% | viability, T/C [3]: 114% | viability, T/C [4]: 102% | viability, T/C [5]: 113% | viability, T/C [6]: 121% | viability, T/C [7]: 105% | viability, T/C [8]: 94.6% | viability, T/C [9]: 121% | viability, T/C [10]: 97.7% | viability, T/C [11]: 107% | viability, T/C [12]: 119% | viability, T/C [13]: 96.9% | viability, T/C [14]: 116% | viability, T/C [15]: 100% | viability, T/C [16]: 108% | viability, T/C [17]: 111% | viability, T/C [18]: 120% | viability, T/C [19]: 106% | viability, T/C [20]: 111% | viability, T/C [21]: 109% | viability, T/C [22]: 111% | viability, T/C [23]: 127% | viability, T/C [24]: 116% | viability, T/C [25]: 104% | viability, T/C [26]: 107% | viability, T/C [27]: 97.9% | viability, T/C [28]: 106% | viability, T/C [29]: 102% | viability, T/C [30]: 115% | viability, T/C [31]: 95.3% | viability, T/C [32]: 103% | viability, T/C [33]: 95.5% | viability, T/C [34]: 114% | viability, T/C [35]: 99.6% | viability, T/C [36]: 93.3%

Reference: PubChem BioAssay AID1963977 (Molecular Pharmacology Branch, DTP, NCI, 2024)
